Where “and” joins values, the source holds several entries; their conditions need not be identical. Equal values may be shown once. Calls of active or inactive are those of the source.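 How the source made its calls: active means mean IC50 below 100 µM; inactive means the rest.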

The target of this assay is Intestinal alkaline phosphatase (Alpi) [Mus musculus]. Briefly: inhibitors of murine Alpi enzyme – biochemical, ortholog specificity, luminescence, selectivity assay for human IAP inhibitor project, SAR follow-up (AID 493142). As to conditions: Purified mouse IAP, CDP-Star luminescence, 30 min.
The IC50 is the concentration that gives 50% inhibition. `COC(=O)/C=C1/S/C(=N/N=Cc2ccc(N(C)C)cc2)NC1=O`: the IC50 is > 100 µM (inactive).

Take `CN(C)S(=O)(=O)c1cccc(NC(=S)NN=Cc2ccc(O)c(O)c2O)c1`: the IC50 was 27.6 µM.

With `COc1cc(C=NN=C2SC(CC(=O)O)C(=O)N2c2ccc(O)cc2)ccc1O` (stereo unspecified), the IC50 was > 100 µM (inactive).

With `N#CCCn1cc(/C=N/N=C2/NC(=O)C(CC(=O)O)S2)c(-c2ccc(F)cc2)n1` (stereo unspecified), the IC50 is > 100 µM (inactive).

On to `Cc1cc(=O)oc2cc(NC(=S)NCCC(c3ccccc3)c3ccccc3)ccc12`, for which the IC50 is > 100 µM (inactive).

As to `O=C(O)CC1S/C(=N/N=C/c2ccco2)NC1=O` (stereo unspecified), the IC50 was > 100 µM (inactive).

With `Cc1ccc(-c2ccc(/C=N/N=C3\NC(=O)C(CC(=O)O)S3)o2)c([N+](=O)[O-])c1` (stereo unspecified), the IC50 is > 100 µM (inactive).

As to `Cc1ccc2sc(NNC(=O)c3ccc4c(c3)OCCO4)nc2c1C`, the IC50 was > 100 µM (inactive).

For the molecule `COC(=O)/C=C1/S/C(=N/NC(=O)c2ccc(OC)cc2)NC1=O`, the IC50 is > 100 µM (inactive).

Regarding `Cc1ccc(Nc2nc(-c3ccc(O)c(C(N)=O)c3)cs2)cc1`, the IC50 is > 100 µM (inactive).

As for `Cc1cccc(NC(=S)NN=Cc2ccc3c(c2)OCO3)c1`, the IC50 is > 100 µM (inactive).

Regarding `COC(=O)C/C=N/N=C1\NC(=O)/C(=C/C(=O)O)S1`, the IC50 was > 100 µM (inactive).

Consider `COC(=O)/C=C1\S/C(=N/N=C/CC(=O)OC)NC1=O`, for which the IC50 is > 100 µM (inactive).

Take `CC(=NNC(=S)Nc1ccccc1)c1ccc2c(c1)OCO2`: the IC50 is > 100 µM (inactive).

Consider `COC(=O)/C=C1\SC(N=Nc2c(O)[nH]c3ccccc23)=NC1=O`, for which the IC50 is > 100 µM (inactive).

Turning to `Cc1ccc(Nc2nc(-c3ccc(O)cc3O)cs2)cc1`, the IC50 was > 100 µM (inactive).

Consider `NS(=O)(=O)c1ccc(Nc2nc(-c3ccc(O)cc3O)cs2)cc1`, for which the IC50 is 49 µM.

Regarding `Cn1c(=S)n(N=Cc2ccc3c(c2)OCO3)c2ccccc21`, the IC50 is > 100 µM (inactive).

In the case of `Cc1ccc(C)c(Nc2nc(-c3ccc(O)cc3O)cs2)c1`, the IC50 is > 100 µM (inactive).

Consider `Cc1c(Cl)cccc1Nc1nc(-c2ccc(O)c(O)c2)cs1`, for which the IC50 is 4.43 µM and 12 µM.

For the molecule `COC(=O)/C=C1/S/C(=N/NC(=O)c2ccccc2OC)NC1=O`, the IC50 is > 100 µM (inactive).

`O=[N+]([O-])c1ccccc1NC(=S)NN=Cc1ccc(O)c(O)c1`: the IC50 is 6.64 µM.

Consider `COc1cc(C=NNC(=S)Nc2cccc(S(=O)(=O)N(C)C)c2)cc(OC)c1O`, for which the IC50 was > 100 µM (inactive).

As for `COc1ccc(C=Nn2c(=S)n(C)c3ccccc32)cc1OC`, the IC50 was > 100 µM (inactive).

In the case of `CCOc1cc(/C=N/N=C2\NC(=O)C(CC(=O)O)S2)ccc1O` (stereo unspecified), the IC50 is > 100 µM (inactive).

Consider `CCOc1ccc(Nc2nc(-c3ccc(O)c(O)c3)cs2)cc1`, for which the IC50 was 6.98 µM.

As for `Cc1ccc(Cl)cc1Nc1nc(-c2ccc(O)c(O)c2)cs1`, the IC50 is 3.85 µM.

For `COc1cc(/C=N/N=C2\NC(=O)C(CC(=O)O)S2)cc(OC)c1OC` (stereo unspecified), the IC50 was > 100 µM (inactive).

For `COc1ccc(/C=N/N=C2/NC(=O)C(CC(=O)O)S2)cc1OC` (stereo unspecified), the IC50 is > 100 µM (inactive).

On to `COC(=O)/C=C1/S/C(=N/NC(=O)c2ccccc2C)NC1=O`, for which the IC50 was > 100 µM (inactive).

For `O=[N+]([O-])c1ccccc1NC(=S)N/N=C/c1ccc(O)c(O)c1O`, the IC50 is 22.2 µM.

`Oc1ccc(-c2csc(Nc3ccc(F)cc3)n2)cc1O`: the IC50 was 5.59 µM.

Turning to `S=C(NCCC(c1ccccc1)c1ccccc1)Nc1ccc(Cl)cc1Cl`, the IC50 is > 100 µM (inactive).

With `Cc1ccc(Nc2nc(-c3ccc(O)cc3O)cs2)cc1C`, the IC50 is > 100 µM (inactive).

As to `COC(=O)/C=C1/S/C(=N/NC(=O)c2ccccc2)NC1=O`, the IC50 is > 100 µM (inactive).

As for `COc1cc(C=NNC(=S)Nc2cccc(S(=O)(=O)N(C)C)c2)ccc1O`, the IC50 is > 100 µM (inactive).

Consider `COc1cc(C(=O)NNC(=S)Nc2ccc(S(N)(=O)=O)cc2)cc(OC)c1OC`, for which the IC50 was > 100 µM (inactive).

For `COC(=O)/C=C1\S/C(=N/N=C/c2ccc(Cl)cc2)NC1=O`, the IC50 is > 100 µM (inactive).

Turning to `FC(F)(F)c1cccc(NC(=S)NCCC(c2ccccc2)c2ccccc2)c1`, the IC50 is > 100 µM (inactive).

Regarding `O=S(=O)(c1ccc(NC(=S)N/N=C/c2ccc(O)c(O)c2)cc1)N1CCOCC1`, the IC50 was 1.02 µM.

Consider `CCOc1cc(C=N/N=C2/NC(=O)C(CC(=O)O)S2)ccc1OCc1ccccc1Cl` (stereo unspecified), for which the IC50 is > 100 µM (inactive).

Regarding `COc1cc([N+](=O)[O-])ccc1NC(=S)NNC(=O)c1ccc2c(c1)OCO2`, the IC50 was 95.4 µM.

As for `Cc1ccc(Nc2nc(-c3ccc(O)cc3O)cs2)cc1F`, the IC50 is > 100 µM (inactive).

Turning to `COc1ccc(-c2csc(Nc3cccc4ccccc34)n2)cc1`, the IC50 is > 100 µM (inactive).

As to `COc1cc([N+](=O)[O-])ccc1NC(=S)NCCC(c1ccccc1)c1ccccc1`, the IC50 is > 100 µM (inactive).

Take `COc1ccc(/C=N/N=C2\NC(=O)C(CC(=O)O)S2)c(OC)c1` (stereo unspecified): the IC50 is > 100 µM (inactive).

As to `COc1cccc(Nc2nc(-c3ccc(O)cc3)cs2)c1`, the IC50 was > 100 µM (inactive).

On to `Oc1ccc(-c2csc(Nc3ccccc3)n2)c(O)c1`, for which the IC50 was > 100 µM (inactive).

On to `COc1ccc(NC(=S)NCCC(c2ccccc2)c2ccccc2)cc1`, for which the IC50 is > 100 µM (inactive).

With `COc1ccc(Cl)cc1Nc1nc(-c2ccc(O)c(O)c2)cs1`, the IC50 was 5.23 µM and 4.64 µM.

With `Oc1ccc(Nc2nc(-c3ccc(O)c(O)c3)cs2)cc1`, the IC50 was 1.4 µM.

In the case of `COc1cc(/C=N/N=C2/SCC(=O)N2c2ccc(O)cc2)ccc1O`, the IC50 was > 100 µM (inactive).

`Cc1cccc(Nc2nc(-c3ccc(O)c(O)c3)cs2)c1`: the IC50 was 7.77 µM.

As for `COc1ccc(C=NNC(=S)Nc2ccccc2[N+](=O)[O-])cc1O`, the IC50 is > 100 µM (inactive).

Consider `Cc1ccc(Nc2nc(-c3ccc(O)c(O)c3)cs2)cc1`, for which the IC50 was 6.64 µM.

Turning to `Cc1ccc2nc(NNC(=O)c3ccc4c(c3)OCCO4)sc2c1`, the IC50 is 57.7 µM.

Take `NS(=O)(=O)c1ccc(Nc2nc(-c3ccc(O)c(O)c3)cs2)cc1`: the IC50 is 2.11 µM.

As to `O=S(=O)(Nc1ncccn1)c1ccc(NC(=S)NCCC(c2ccccc2)c2ccccc2)cc1`, the IC50 is > 100 µM (inactive).

Turning to `O=S(=O)(c1ccc(NC(=S)N/N=C/c2ccc(O)c(O)c2O)cc1)N1CCOCC1`, the IC50 is 80.8 µM.

As for `COc1ccc(-c2csc(Nc3cccc4ccccc34)n2)cc1F`, the IC50 is > 100 µM (inactive).

Regarding `Cc1cccc(NC(=S)NNC(=O)c2ccc3c(c2)OCO3)c1`, the IC50 is 58.5 µM.

With `Cc1cccc2sc(NNC(=O)c3ccc4c(c3)OCCO4)nc12`, the IC50 was 76 µM.

On to `O=[N+]([O-])c1ccc(NC(=S)NCCC(c2ccccc2)c2ccccc2)cc1`, for which the IC50 was > 100 µM (inactive).

As for `Cc1cccc(C)c1NC(=S)N/N=C/c1ccc(O)c(O)c1O`, the IC50 is 58.3 µM.

For the molecule `CCc1ccccc1Nc1nc(-c2ccc(O)c(O)c2)cs1`, the IC50 is 5.47 µM and 4.15 µM.

Take `COc1cc(C=NNC(=S)Nc2cccc(C(=O)O)c2)ccc1O`: the IC50 was > 100 µM (inactive).

Turning to `Cc1ccc(Nc2nc(-c3ccc(O)c(O)c3)cs2)cc1F`, the IC50 was 9.66 µM.

In the case of `COc1ccc(C(=O)NNC(=S)NC2CCCCC2)cc1OC`, the IC50 was 88.1 µM.

Regarding `Cc1cccc(Nc2nc(-c3ccc(O)c(C(N)=O)c3)cs2)c1`, the IC50 is > 100 µM (inactive).

Regarding `CCN(CC)S(=O)(=O)c1ccc(-c2csc(=Nc3cccc4ccccc34)n2C)cc1`, the IC50 was > 100 µM (inactive).

`Cc1cc(C)cc(Nc2nc(-c3ccc(O)cc3O)cs2)c1`: the IC50 was > 100 µM (inactive).

Take `CCOc1cc(C=NNC(=S)NC2CCCCC2)ccc1O`: the IC50 was > 100 µM (inactive).

In the case of `COC(=O)/C=C1/S/C(=N/NC(=O)c2ccc(Cl)cc2Cl)NC1=O`, the IC50 was > 100 µM (inactive).

For `CC(C)(C)c1ccc(/C=N/N=C2\NC(=O)C(CC(=O)O)S2)cc1` (stereo unspecified), the IC50 was > 100 µM (inactive).

Take `COc1ccc(C=NN=C2SC(CC(=O)O)C(=O)N2c2ccc(O)cc2)cc1` (stereo unspecified): the IC50 is > 100 µM (inactive).

Regarding `Oc1ccc(-c2csc(Nc3cccc4ccccc34)n2)cc1O`, the half-inhibitory concentration (IC50) was 2.72 µM and 5.26 µM.

These data come from PubChem BioAssay AID493142 (Sanford-Burnham Center for Chemical Genomics, 2011).
